The source of these data is article PMC7076388 (Pharmaceutics, 2020).

As usually defined, the inhibition is the drop in the measured response relative to a control, in per cent. A word on the pIC50: it is the negative decadic logarithm of the IC50, by convention in mol/L.

pIC50: −log10 of the molar value. Entries after “also recorded” stand apart in the source; their conditions may differ.

Data set [1] deals with T1, COX-1 (Ovis aries, UniProt P05979).
T1 construct: purchased Cayman Chemical
T1 sequence (P05979 25-600): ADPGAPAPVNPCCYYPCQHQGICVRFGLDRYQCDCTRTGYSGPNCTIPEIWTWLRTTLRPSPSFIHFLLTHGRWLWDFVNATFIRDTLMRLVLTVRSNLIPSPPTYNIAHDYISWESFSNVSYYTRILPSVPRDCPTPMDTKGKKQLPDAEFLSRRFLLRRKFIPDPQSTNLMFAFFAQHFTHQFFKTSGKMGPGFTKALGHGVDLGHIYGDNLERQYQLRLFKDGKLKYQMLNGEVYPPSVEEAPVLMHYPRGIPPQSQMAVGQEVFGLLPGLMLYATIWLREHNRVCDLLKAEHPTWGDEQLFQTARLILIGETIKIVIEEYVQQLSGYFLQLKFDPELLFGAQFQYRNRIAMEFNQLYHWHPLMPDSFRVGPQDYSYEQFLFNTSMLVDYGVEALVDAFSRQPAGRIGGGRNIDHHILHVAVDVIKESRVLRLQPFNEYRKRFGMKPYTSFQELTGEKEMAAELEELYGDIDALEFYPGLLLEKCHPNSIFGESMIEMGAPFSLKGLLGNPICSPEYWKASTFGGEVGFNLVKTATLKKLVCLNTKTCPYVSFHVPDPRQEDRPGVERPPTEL
As to the kind of experiment: COX fluorescent inhibitor screening assay, COX-1. It is filed as biochemical. As for the experimental part: (§1) The assay was performed using the COX fluorescent inhibitor screening assay kit (Cayman chemical, MI, USA), with some modifications. […] After 5 min of incubation at room temperature, 5 µL of 10-acetyl-3,7-dihydroxyphenoxazine (ADHP) and 20 µL of a solution containing arachidonic acid (0.5 mM) and KOH (2.5 mM) were added to each well.

For data set [2], the target named is T2, COX-2 (Homo sapiens, UniProt P35354).
T2 construct: purchased Cayman Chemical
T2 sequence (P35354 18-604): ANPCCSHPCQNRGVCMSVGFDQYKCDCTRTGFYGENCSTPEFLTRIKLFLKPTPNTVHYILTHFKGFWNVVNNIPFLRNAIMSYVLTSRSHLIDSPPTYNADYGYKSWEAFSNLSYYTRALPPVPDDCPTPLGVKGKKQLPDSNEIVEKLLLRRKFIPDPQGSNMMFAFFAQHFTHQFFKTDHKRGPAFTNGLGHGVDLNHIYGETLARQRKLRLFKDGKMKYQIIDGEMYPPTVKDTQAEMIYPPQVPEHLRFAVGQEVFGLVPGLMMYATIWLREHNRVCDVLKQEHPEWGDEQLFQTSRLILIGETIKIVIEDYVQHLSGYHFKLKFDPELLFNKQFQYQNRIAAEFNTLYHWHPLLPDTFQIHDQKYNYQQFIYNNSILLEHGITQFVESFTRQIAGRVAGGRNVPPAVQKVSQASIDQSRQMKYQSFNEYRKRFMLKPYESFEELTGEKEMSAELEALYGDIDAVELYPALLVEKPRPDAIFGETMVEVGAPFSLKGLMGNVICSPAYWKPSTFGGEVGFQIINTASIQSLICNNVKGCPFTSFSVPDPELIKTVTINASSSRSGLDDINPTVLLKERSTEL
The experiment in a line: COX fluorescent inhibitor screening assay, COX-2. In kind it is biochemical. As for the experimental part:
as §1

For data set [3], the target named is 20S proteasome isolated from erythrocytes (Homo sapiens, UniProt P28074). Conditions: reported in literature; cited from earlier work.
Data set [4] deals with T2, COX-2. Also noted: method as in PMID 30987203. Conditions: 25 µM; low selectivity towards COX-2; cited from earlier work.
Data set [5] deals with T3, LOX from glycine max (soybean) (Glycine max, UniProt P08170).
T3 construct: purchased Sigma-Aldrich
T3 sequence (P08170 1-839): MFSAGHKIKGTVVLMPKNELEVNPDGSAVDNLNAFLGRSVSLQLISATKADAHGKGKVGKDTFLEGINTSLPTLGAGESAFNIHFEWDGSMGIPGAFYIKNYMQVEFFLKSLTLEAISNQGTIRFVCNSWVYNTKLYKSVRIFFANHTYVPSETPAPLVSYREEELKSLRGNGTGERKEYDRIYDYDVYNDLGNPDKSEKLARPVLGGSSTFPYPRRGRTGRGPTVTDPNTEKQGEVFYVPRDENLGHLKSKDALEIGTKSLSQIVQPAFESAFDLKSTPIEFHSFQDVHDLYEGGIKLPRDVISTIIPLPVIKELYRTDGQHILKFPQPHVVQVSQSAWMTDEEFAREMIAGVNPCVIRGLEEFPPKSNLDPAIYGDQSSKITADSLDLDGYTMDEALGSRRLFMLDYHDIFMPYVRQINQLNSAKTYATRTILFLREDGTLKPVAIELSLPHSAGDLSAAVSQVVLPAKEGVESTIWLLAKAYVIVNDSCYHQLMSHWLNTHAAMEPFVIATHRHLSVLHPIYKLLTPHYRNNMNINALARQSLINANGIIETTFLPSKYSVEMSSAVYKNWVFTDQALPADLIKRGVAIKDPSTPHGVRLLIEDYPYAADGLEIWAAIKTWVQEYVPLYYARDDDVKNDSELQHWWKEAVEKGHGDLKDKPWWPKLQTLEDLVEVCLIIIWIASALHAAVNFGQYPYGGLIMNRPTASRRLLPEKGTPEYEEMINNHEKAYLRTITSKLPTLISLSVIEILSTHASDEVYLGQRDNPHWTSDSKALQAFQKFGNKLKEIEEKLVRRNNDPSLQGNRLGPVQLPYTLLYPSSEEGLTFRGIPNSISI
As to the kind of experiment: Lipoxygenase glycine max (soybean) assay. In kind it is biochemical. The conditions noted are these: dose-response assay; read-out: IC50 for LOX inhibition. As for the experimental part: The inhibitory effect on LOX was assessed in 96-well plates, using a modified version of a previously reported procedure from Pereira et al.. […] After 5 min pre-incubation at room temperature, the reaction was started by addition of linoleic acid substrate (20 µL of a 4.18 mM solution in ethanol). The reaction was monitored at 234 nm using a multiplate reader (Multiskan Thermo Fisher Scientific Oy, Vantaa, Finland), for 3 min.

Another data set deals with RAW 264.7 cells. Details: method as in PMID 30987203. Conditions: up to 100 µM, 24 h, MTT; cited from earlier work.
Data set [6] deals with T1, COX-1. Also noted: method as in PMID 30987203. Conditions: 25 µM; cited from earlier work.
The test system of data set [7] is LPS-induced •NO production in RAW 264.7 cells. The conditions noted are these: preliminary study; cited from earlier work.
Data set [8] has as its target T3, LOX from glycine max (soybean). Also noted: method as in PMID 30987203. Conditions: 100 µM; cited from earlier work.
The next data set relates to AGS cells. The experiment in a line: MTT cell viability, AGS cells. It is filed as cell-based. The conditions noted are these: 100 µM, 24 h. As for the experimental part:
Adenocarcinoma gastric cells (AGS; Sigma-Aldrich, St. Louis, MO, USA), murine-macrophage cell line (RAW 264.7; American Type Culture Collection, LGC Standards S.L.U., Barcelona, Spain), and human foetal lung fibroblasts (MRC-5; ECACC, Porton Down Salisbury, UK) were cultured as a monolayer at 37 °C in a humidified incubator with 5% carbon dioxide. AGS and RAW 264.7 cells were grown in DMEM, supplemented with 1% streptomycin/penicillin and 10% FBS (Gibco®). MRC-5 cells were grown in MEM, supplemented with 1% streptomycin/penicillin and 10% FBS.
Cell viability was evaluated by the MTT reduction assay. Cells were cultured in 96-well plates (15,000 cells/well for AGS, 25,000 cells/well for RAW and 20,000 cells/well for MRC-5) and allowed to attach for 24 h. After incubation with compounds for 24 h, MTT (0.5 mg/mL final concentration) was added to each well and the plate was incubated for 75 min at 37 °C. Formazan crystals were dissolved by the addition of a DMSO: isopropanol mixture (3:1) and then quantified spectrophotometrically at 570 nm using a microplate reader (Multiskan Thermo Fisher Scientific Oy, Vantaa, Finland).

As to `COc1ccc2cc([C@H](C)C(=O)O)ccc2c1` [Naproxen, reference compound], the inhibition at 25 µM amounted to 42.3% on COX-1 [1] and 61.5% against COX-2 [2]. Also, the proteasome inhibition entry in data set [3] is “not be an inhibitor of proteasome”.

Regarding `COC(=O)C(=Cc1ccccc1)NC(=O)C(CC(=O)O)NC(=O)C(C)c1ccc2cc(OC)ccc2c1` [Compound 2, Npx-L-Asp-Z-ΔPhe-OMe], the “COX inhibition level (COX-2)” value on COX-2 [4] is “modest levels of COX inhibition”. In [5], the pIC50 was 4.17. Further, the “cytotoxic effect on RAW 264.7 viability” value in the data set on RAW 264.7 cells is reported as “did not show any statistically significant cytotoxic effects”. Besides, the “COX inhibition level (COX-1)” value at COX-1 [6] is “modest levels of COX inhibition”. Further, the “inhibition of LPS-induced production of •NO” value in [7] is “modest ability to inhibit”. The “LOX inhibition at single concentration” value in [8] is recorded as “significantly inhibit the LOX enzyme to a similar level to naproxen; also recorded: high levels of lipoxygenase (LOX) inhibition”. In addition, the “toxicity towards AGS cells” value in the data set on AGS cells is recorded as “slightly cytotoxic”.
